Measurements taken from article PMC8586704 (Frontiers in Chemistry, 2021).
Converted amounts (≈) assume the structure as drawn. Like-named read-outs stand apart in the source and are kept apart here. Starred links: 1 amine or outer side, 2 acyl side, 3 side chain; linkers in the order of their positions; H or OH if unused. Non-standard residues stand in square brackets, D forms with d. Residues, ends and D or L forms follow the SMILES beside them. Groups on a side chain read outwards from the residue. *: point of attachment. X8 = O=C(CCc1c[nH]c2ccccc12)Oc1ccc(C[C@H](N[*:1])C(=O)[*:2])cc1[N+](=O)[O-]; X2 = COC(=O)[C@@H](NC(=O)[C@@H](C)C[C@@H](C(=O)[*:2])N(C)[*:1])[C@@H](C)O; X3 = O=C(Cc1ccc(F)cc1)Oc1ccc(C[C@H](N[*:1])C(=O)[*:2])cc1[N+](=O)[O-]; Trp(1-(1,1-Me2-allyl)) = C=CC(C)(C)n1cc(C[C@H](N)C(=O)O)c2ccccc21; NMeGlu(4S-Me) = C[C@@H](C[C@@H](C(=O)[*:2])N(C)[*:1])C(=O)[*:3]; X9 = CSCCC(=O)Oc1ccc(C[C@H](N[*:1])C(=O)[*:2])cc1[N+](=O)[O-]; Tyr(3-NO2) = N[C@@H](Cc1ccc(O)c([N+](=O)[O-])c1)C(=O)O; X7 = O=C1O[C@@H](CN*)CN1c1ccc(N2CCOCC2)c(F)c1; Gly(E-crotyl) = C/C=C/C[C@H](N)C(=O)O; NMeL = CN[C@@H](CC(C)C)C(=O)O

Assays:
[1] = system: M. tuberculosis H37Rv; experiment: Antitubercular activity assay, broth dilution, auto-luminescent strain; format: cell-based, Mycobacterium tuberculosis
[2] = system: MCF-7; experiment: cells; format: cell-based; conditions: Homo sapiens, MCF7; breast adenocarcinoma cell line
[3] = system: HeLa; experiment: cells; format: cell-based; conditions: Homo sapiens, cervical carcinoma cell line
[4] = system: HepG2; experiment: cells; format: cell-based; conditions: Homo sapiens, hepatocellular carcinoma cell line
[5] = system: A549; experiment: Cytotoxicity assay (CCK-8); format: cell-based; conditions: Homo sapiens, lung cancer cell line
[6] = system: HCT116; experiment: cells; format: cell-based; conditions: Homo sapiens, HCT-116; colon cancer cell line
[7] = system: L02; experiment: cells; format: cell-based; conditions: normal human hepatic cell line
[8] = system: Huvec-12; experiment: Cytotoxicity assay (CCK-8); format: cell-based; conditions: normal human umbilical vein endothelial cell line
[9] = system: M. tuberculosis H37Rv; parameters: method as in Ma et al., 2017; conditions: ref Ma et al., 2017; cited from earlier work
[10] = system: five human cancer cell lines and two normal cell lines; conditions: MCF-7, A549, HCT116, L02
[11] = system: five human cancer cell lines and two normal cell lines; experiment: cells
[12] = Mycobacterium tuberculosis, H37RV, Day 3rd, read-out: MICs against H37Rv, Day 3rd
[13] = Mycobacterium tuberculosis, H37RV, Day 7th, read-out: MICs against H37Rv, Day 7th
[14] = Mycobacterium tuberculosis, H37RV, Day 14th, read-out: MICs against H37Rv, Day 14th

Row | SMILES | MIC [1, 12] [µM] | MIC [1, 13] [µM] | MIC [1, 14] [µM] | IC50 [2] [µM] | IC50 [3] [µM] | IC50 [4] [µM] | IC50 [5] [µM] | IC50 [6] [µM] | IC50 [7] [µM] | IC50 [8] [µM] | MIC against M. tuberculosis H37Rv [9] [µM] | MIC ([1]; Day 14th, read-out: MICs against H37Rv, Day 14th) [µM] | promotion of cytotoxicity compared with ilamycin F [10] | IC50 ([11]; read-out: IC50 against MCF-7, A549, HCT116, and L02) [µM] | IC50 ([11]; read-out: IC50 against five human cancer cell lines and two normal cell lines) [µM] | MIC ([1]; Mycobacterium tuberculosis, H37RV, read-out: MICs against H37Rv, Day 3rd) [µM] | MIC ([1]; Mycobacterium tuberculosis, H37RV, read-out: MICs against H37Rv, Day 7th) [µM] | MIC ([1]; Mycobacterium tuberculosis, H37RV, read-out: MICs against H37Rv, Day 14th) [µM]
1 | C=CC(C)(C)n1cc(C[C@@H]2NC(=O)[C@H](C/C=C/C)NC(=O)[C@H](CC(C)C)NC(=O)[C@H](C[C@H](C)C(=O)O)N(C)C(=O)[C@H](C)NC(=O)[C@H](Cc3ccc(O)c([N+](=O)[O-])c3)NC(=O)[C@H](CC(C)C)N(C)C2=O)c2ccccc21 [ilamycin F, reference compound] (cyclo(A[NMeGlu(4S-Me)]L[Gly(E-crotyl)][Trp(1-(1,1-Me2-allyl))][NMeL][Tyr(3-NO2)])) | 30.7 (≈ 32 µg/mL) | 15.4 (≈ 16.1 µg/mL) | 1.9 (≈ 1.98 µg/mL) | 32.2 | 31 | > 50 | 47 | 44.8 | 43.9 | 46.1 | 1.2 (≈ 1.25 µg/mL) | – | – | – | – | – | – | –
2 | C=CC(C)(C)n1cc(C[C@@H]2NC(=O)[C@H](C/C=C/C)NC(=O)[C@H](CC(C)C)NC(=O)[C@H](C[C@H](C)C(=O)N[C@H](C(=O)OC)[C@@H](C)O)N(C)C(=O)[C@H](C)NC(=O)[C@H](Cc3ccc(O)c([N+](=O)[O-])c3)NC(=O)[C@H](CC(C)C)N(C)C2=O)c2ccccc21 [Compound 1, ilamycin NJL1] (cyclo(A[X2]L[Gly(E-crotyl)][Trp(1-(1,1-Me2-allyl))][NMeL][Tyr(3-NO2)])) | – | 1.7 (≈ 1.97 µg/mL) | 1.6 to 1.7 (≈ 1.85 to 1.97 µg/mL) | 9 | 11.3 | 17.7 | 5.7 | 7.2 | 6.5 | 10.3 | – | 1.7 (≈ 1.97 µg/mL) | 3–8 fold | 5.7 to 9 | 5.7 to 11.3 | – | – | –
3 | C=CC(C)(C)n1cc(C[C@@H]2NC(=O)[C@H](C/C=C/C)NC(=O)[C@H](CC(C)C)NC(=O)[C@H](C[C@H](C)C(=O)N[C@@H](Cc3ccccc3)C(=O)OC)N(C)C(=O)[C@H](C)NC(=O)[C@H](Cc3ccc(O)c([N+](=O)[O-])c3)NC(=O)[C@H](CC(C)C)N(C)C2=O)c2ccccc21 [Compound 7, ilamycin NJL7] (cyclo(A[NMeGlu(4S-Me)]([Phe-OMe])L[Gly(E-crotyl)][Trp(1-(1,1-Me2-allyl))][NMeL][Tyr(3-NO2)])) | 26.6 (≈ 32 µg/mL) | 13.3 (≈ 16 µg/mL) | 6.6 (≈ 7.94 µg/mL) | > 50 | > 50 | > 50 | > 50 | > 50 | > 50 | > 50 | – | – | – | – | – | – | – | –
4 | C=CC(C)(C)n1cc(C[C@@H]2NC(=O)[C@H](C/C=C/C)NC(=O)[C@H](CC(C)C)NC(=O)[C@H](C[C@H](C)C(=O)O)N(C)C(=O)[C@H](C)NC(=O)[C@H](Cc3ccc(OC(=O)CCc4c[nH]c5ccccc45)c([N+](=O)[O-])c3)NC(=O)[C@H](CC(C)C)N(C)C2=O)c2ccccc21 [Compound 16, ilamycin NJL16] (cyclo(A[NMeGlu(4S-Me)]L[Gly(E-crotyl)][Trp(1-(1,1-Me2-allyl))][NMeL][X8])) | 26.4 (≈ 32 µg/mL) | 26.4 (≈ 32 µg/mL) | 26.4 (≈ 32 µg/mL) | > 50 | > 50 | > 50 | > 50 | > 50 | > 50 | > 50 | – | – | – | – | – | – | – | –
5 | C=CC(C)(C)n1cc(C[C@@H]2NC(=O)[C@H](C/C=C/C)NC(=O)[C@H](CC(C)C)NC(=O)[C@H](C[C@H](C)C(=O)NC[C@H]3CN(c4ccc(N5CCOCC5)c(F)c4)C(=O)O3)N(C)C(=O)[C@H](C)NC(=O)[C@H](Cc3ccc(O)c([N+](=O)[O-])c3)NC(=O)[C@H](CC(C)C)N(C)C2=O)c2ccccc21 [Compound 14, ilamycin NJL14] (cyclo(A[NMeGlu(4S-Me)](X7)L[Gly(E-crotyl)][Trp(1-(1,1-Me2-allyl))][NMeL][Tyr(3-NO2)])) | – | – | – | > 50 | > 50 | > 50 | > 50 | > 50 | > 50 | > 50 | – | – | – | – | – | 48.5 (≈ 64 µg/mL) | 48.5 (≈ 64 µg/mL) | 48.5 (≈ 64 µg/mL)
6 | C=CC(C)(C)n1cc(C[C@@H]2NC(=O)[C@H](C/C=C/C)NC(=O)[C@H](CC(C)C)NC(=O)[C@H](C[C@H](C)C(=O)O)N(C)C(=O)[C@H](C)NC(=O)[C@H](Cc3ccc(OC(=O)Cc4ccc(F)cc4)c([N+](=O)[O-])c3)NC(=O)[C@H](CC(C)C)N(C)C2=O)c2ccccc21 [Compound 17, ilamycin NJL17] (cyclo(A[NMeGlu(4S-Me)]L[Gly(E-crotyl)][Trp(1-(1,1-Me2-allyl))][NMeL][X3])) | 27.2 (≈ 32.1 µg/mL) | 27.2 (≈ 32.1 µg/mL) | 27.2 (≈ 32.1 µg/mL) | > 50 | > 50 | > 50 | > 50 | > 50 | > 50 | > 50 | – | – | – | – | – | – | – | –
7 | C=CC(C)(C)n1cc(C[C@@H]2NC(=O)[C@H](C/C=C/C)NC(=O)[C@H](CC(C)C)NC(=O)[C@H](C[C@H](C)C(=O)O)N(C)C(=O)[C@H](C)NC(=O)[C@H](Cc3ccc(OC(=O)CCSC)c([N+](=O)[O-])c3)NC(=O)[C@H](CC(C)C)N(C)C2=O)c2ccccc21 [Compound 18, ilamycin NJL18] (cyclo(A[NMeGlu(4S-Me)]L[Gly(E-crotyl)][Trp(1-(1,1-Me2-allyl))][NMeL][X9])) | 28 (≈ 32 µg/mL) | 28 (≈ 32 µg/mL) | 28 (≈ 32 µg/mL) | > 50 | > 50 | > 50 | > 50 | > 50 | > 50 | > 50 | – | – | – | – | – | – | – | –
